Patent publication US6838436B1, “Inhibitors of proteasomal activity for stimulating bone growth” (Osteoscreen Inc., priority 1998, dated 2005)
pEC50, pIC50: −log10 of the molar value. Where two headings read alike, the source gives them in different places. Where a SMILES comes first, the peptide text is derived from it. [ ]: non-standard residue; d: D form. The star is where a group is joined. Nva = CCC[C@H](N)C(=O)O; Cbz = O=C(OCc1ccccc1)*; OtBu = CC(C)(C)O*

Tests used:
mouse BMP2 promoter = test: High throughput screen (ABA assay): BMP2 promoter-luciferase reporter in 2T3-BMP-2-LUC osteoblast cells; format: cell-based; details: for activity in the high through-put assay compared with simvastatin: Example 6; for EC50: read-out: Luciferase Activity (ED50-μM)
Text: 1995, the entire contents of which are incorporated herein by reference. This assay is also described as a portion of a study of immortalized murine osteoblasts (derived from a mouse expressing a transgene composed of a BMP2 promoter driving expression of T-antigen) in Ghosh-Choudhery, N., et al., Endocrinology (1996) 137:331-39. In this study, the immortalized cells were stably transfected with a plasmid containing a luciferase reporter gene driven by a mouse BMP2 promoter (−2736/114 bp), and responded in a dose-dependent manner to recombinant human BMP2.
Briefly, the assay utilizes cells transformed permanently or transiently with constructs in which the promoter of a bone morphogenetic protein, specifically BMP2 or BMP4, is coupled to a reporter gene, typically luciferase. These transformed cells are then evaluated for the production of the reporter gene product; compounds that activate the BMP promoter will drive production of the reporter protein, which can be readily assayed. Many thousands of compounds have been subjected to this rapid screening technique, and only a very small percentage are able to elicit a level of expression of reporter gene 5-fold greater than that produced by vehicle. […] The active compounds (“BMP promoter-active compounds” or “active compounds”) are useful in promoting bone or cartilage growth, and thus in the treatment of vertebrates in need of bone or cartilage growth.
Thousands of compounds have been tested in the assay system set forth in U.S. Ser. No. 08/458,434, filed 2 Jun. 1995, and incorporated herein by reference. […] In this screen, the standard positive control was the compound 59-0008 (also denoted “OS8”), which is of the formula: [drawing 22]
In more detail, the 2T3-BMP-2-LUC cells, a stably transformed osteoblast cell line described in Ghosh-Choudhury et al. Endocrinology (1996) 137:331-39, referenced above, was employed. The cells were cultured using α-MEM, 10% FCS with 1% penicillin/streptomycin and 1% glutamine (“plating medium”), and were split 1:5 once per week. For the assay, the cells were resuspended in a plating medium containing 4% FCS, plated in microtiter plates at a concentration of 5×10^3 cells (in 50 μl)/well, and incubated for 24 hours at 37° C. in 5% CO2. To initiate the assay, 50 μl of the test compound or the control in DMSO was added at 2× concentration to each well, so that the final volume was 100 μl. The final serum concentration was 2% FCS, and the final DMSO concentration was 1%. Compound 59-0008 (10 μM) was used as a positive control.
The treated cells were incubated for 24 hours at 37° C. and 5% CO2. The medium was then removed, and the cells were rinsed three times with PBS. After removal of excess PBS, 25 μl of 1× cell culture lysing reagent (Promega #E153A) was added to each well and incubated for at least ten minutes. Optionally, the plates/samples could be frozen at this point. To each well was added 50 μl of luciferase substrate (Promega #E152A; 10 ml Promega luciferase assay buffer per 7 mg Promega luciferase assay substrate). Luminescence was measured on an automated 96-well luminometer, and was expressed as either picograms of luciferase activity per well or as picograms of luciferase activity per microgram of protein.
Accordingly, other tested compounds can be evaluated at various concentrations, and the results compared to the results obtained for 59-0008 at 10 μM (which value would be normalized to 100). Alternatively, the reactivity of a compound to be tested can be compared directly to a negative control containing no compound.

[1] = molecular target: T1, 20S thermophila proteasome (Methanosarcina thermophila, UniProt Q9P992); test: biochemical; details: for EC50: read-out: Proteasome Activity (ED50-μM)
T1 construct: purchased CalBiochem, San Diego, Calif
T1 sequence (Q9P992 10-210): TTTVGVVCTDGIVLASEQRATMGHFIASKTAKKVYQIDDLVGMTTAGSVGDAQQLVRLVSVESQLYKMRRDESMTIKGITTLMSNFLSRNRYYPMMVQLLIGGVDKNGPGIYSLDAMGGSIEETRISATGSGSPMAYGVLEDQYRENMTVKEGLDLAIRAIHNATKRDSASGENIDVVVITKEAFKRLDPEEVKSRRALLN
T1 sequence (Q59565 1-247 partner): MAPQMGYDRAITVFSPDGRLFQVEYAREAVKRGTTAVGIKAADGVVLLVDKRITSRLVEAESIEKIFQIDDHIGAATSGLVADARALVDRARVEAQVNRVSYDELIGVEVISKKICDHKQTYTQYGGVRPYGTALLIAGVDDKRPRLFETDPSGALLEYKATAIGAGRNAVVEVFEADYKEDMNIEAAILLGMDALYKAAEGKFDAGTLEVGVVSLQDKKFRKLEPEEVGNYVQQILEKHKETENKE
Protocol: The assay involves incubating the potential inhibitor with 20S thermophila proteasomes which, in purified form, are commercially available, with a fluorogenic peptide substrate. The presence of an inhibitor will reduce the amount of fluorescence generated by the action of the proteasome fraction on the fluorogenic peptide. This assay is described in further detail in Coux, O., et al., N Rev Biochem (1996) 65:801; Adams, J., et al., Cancer Res (1999) 59:2615; and Craiu, A., et al., J Biol Chem (1997) 272:13437. Further reports are set forth in Hilt, W., et al., Trans Biochem Sci (1996) 21:96; Peters, J., Trends Biochem Sci (1994) 19:377; Maupin-Furlow, J. A., et al., J Biol Chem (1995) 270:28617; and Jensen, T. J., et al., Cell (1995) 83:129. Fluorogenic substrates and purified proteasomes are available, for example, from CalBiochem, San Diego, Calif.
Purified 20S thermophila proteasomes and the fluorogenic peptide substrate Suc-Leu-Leu-Val-Tyr-AMC (SEQ ID NO:3) are available from CalBiochem, San Diego, Calif. Briefly, serial dilutions of the inhibitor to be tested were mixed with proteasome solution at a concentration of proteasome of 0.01 mg/ml. After 30 min incubation at 37° C., substrate solution at a final concentration of 25-30 μg/ml was added and the mixture incubated at 37° C. and then read at 15 min, 30 min, and 60 min in a Fluoroscan instrument. The percentage diminution in fluorescence in the presence as compared to the absence of inhibitor is then calculated.

[2] = read-out: % Proteasomal Activity

Row | Compound | activity in the high through-put assay compared with simvastatin (mouse BMP2 promoter) | Luciferase activity/well (mouse BMP2 promoter; dose 0.000625 μM) | Luciferase activity/well (mouse BMP2 promoter; dose 0.00125 μM) | Luciferase activity/well (mouse BMP2 promoter; dose 0.0025 μM) | Luciferase activity/well (mouse BMP2 promoter; dose 0.005 μM) | Luciferase activity/well (mouse BMP2 promoter; dose 0.01 μM) | Luciferase activity/well (mouse BMP2 promoter; dose 0.02 μM) | Luciferase activity/well (mouse BMP2 promoter; dose 0.04 μM) | Luciferase activity/well (mouse BMP2 promoter; dose 0.08 μM) | pIC50 [1] | response in the high throughput luciferase screen (mouse BMP2 promoter) | EC50 (mouse BMP2 promoter; Mus musculus, Osteoblast) | pEC50 [1] | EC50 [1] | remaining activity at 0.002 µM [1, 2] | remaining activity at 0.004 µM [1, 2] | remaining activity at 0.008 µM [1, 2] | remaining activity at 0.016 µM [1, 2] | remaining activity at 0.032 µM [1, 2] | remaining activity at 0.062 µM [1, 2] | further results
1 | CC[C@H](C)[C@H](NC(=O)[C@H]([C@@H](C)CC)N(C)C(C)=O)C(=O)N[C@H](C(=O)N[C@@H](CC(C)C)C(=O)[C@@]1(C)CO1)[C@@H](C)O [Epoxomicin] | more active than simvastatin | 0.07 | 0.07 | 0.08 | 0.10 | 0.14 | 0.17 | 0.20 | 0.21 | ~7.22 | – | – | – | – | – | – | – | – | – | – | –
2 | CC(=O)N[C@@H](CSC(=O)[C@]1([C@@H](O)C(C)C)NC(=O)[C@H](C)[C@@H]1O)C(=O)O [Lactacystin, lactacystin] | – | – | – | – | – | – | – | – | – | – | Positive responses | 1 µM | 5.82 | – | – | – | – | – | – | – | –
3 | CCC[C@@H](C=O)NC(=O)[C@H](CC(C)C)NC(=O)[C@H](CC(C)C)NC(=O)OCc1ccccc1 [MG-115, N-carbobenzoyl-Leu-Leu-Nva-CHO] (Cbz-Leu-Leu-[Nva]-aldehyde) | – | – | – | – | – | – | – | – | – | – | high activity | 2 µM | – | 1 µM | – | – | – | – | – | – | –
4 | CC(C)C[C@@H](C=O)NC(=O)[C@@H](CC(C)C)NC(=O)[C@H](CC(C)C)NC(=O)OCc1ccccc1 [MG-132, N-carbobenzoyl-Leu-Leu-Leu-CHO] (Cbz-Leu-[dL]-Leu-aldehyde) | – | – | – | – | – | – | – | – | – | – | high activity | 0.25 µM | – | 0.3 µM | 101% | 99% | 101% | 100% | 98% | 90% | remaining activity at 0.125 µM [1, 2]: 87%; remaining activity at 0.25 µM [1, 2]: 73%; remaining activity at 0.5 µM [1, 2]: 57%; remaining activity at 1 µM [1, 2]: 44%; remaining activity at 2 µM [1, 2]: 19%
5 | CC[C@H](C)[C@H](NC(=O)OCc1ccccc1)C(=O)N[C@@H](CCC(=O)OC(C)(C)C)C(=O)N[C@@H](C)C(=O)N[C@H](C=O)CC(C)C [PSI, N-carbobenzoyl-Ile-Glu-(OtBu)-Ala-Leu-CHO] (Cbz-IE(OtBu)AL-aldehyde) | more active than simvastatin | 0.07 | 0.08 | 0.07 | 0.08 | 0.08 | 0.09 | 0.12 | 0.18 | ~7.22 | – | 0.05 µM | 7.46 | – | 100% | 95% | 94% | 86% | 76% | 54% | remaining activity at 0.125 µM [1, 2]: 30%; remaining activity at 0.25 µM [1, 2]: 11%; remaining activity at 0.5 µM [1, 2]: 6%; remaining activity at 1 µM [1, 2]: 5%
6 | simvastatin | – | 0.07 | 0.07 | 0.065 | 0.07 | 0.07 | 0.07 | 0.07 | 0.07 | – | good response | – | – | – | – | – | – | – | – | – | Luciferase activity/well (mouse BMP2 promoter; dose 0.16 μM): 0.07; Luciferase activity/well (mouse BMP2 promoter; dose 0.32 μM): 0.07; Luciferase activity/well (mouse BMP2 promoter; dose 0.625 μM): 0.09; Luciferase activity/well (mouse BMP2 promoter; dose 1.25 μM): 0.11; Luciferase activity/well (mouse BMP2 promoter; dose 2.5 μM): 0.14; Luciferase activity/well (mouse BMP2 promoter; dose 5 μM): 0.15; Luciferase activity/well (mouse BMP2 promoter; dose 10 μM): 0.15; EC50 (mouse BMP2 promoter): 0.2 µM
